This is an account of results in patent publication US11351095B2, “Stabilized emulsions with acidic agents” (Avon Products, Inc., priority 2018, dated 2022).

This data set can be described thus: First normal stress difference of glycerin phases (AR-G2 rheometer). It counts as physicochemical. The protocol:
The first normal stress difference of several glycerin phases (“Phase”) was measured prior to emulsification. A TA Instruments AR-G2 Rheometer was used to perform viscosity measurements for each of the phases A-E and a 100% glycerin phase using a 2 degree cone and plate geometry and a 52 micron gap. Measurements were taken at a shear stress of 100 Pa and 25° C. (77° F.).

Molecules are shown by their SMILES.

Turning to `OCC(O)CO` [Glycerin (100%), Glycerin], where the note is “glycerin phase prior to emulsification, shear stress of 100 Pa and 25° C., 2 degree cone and plate, 52 micron gap”, the “First Normal Stress Difference (N1 = 2 × Je × η^2 × γ^2, Pa)” value is 0 Pa. Also, the extensional viscosity result (inferred from first normal stress difference) is “no extensional viscosity”.
